In patent US9062051B2, “Compounds and pharmaceutical compositions thereof for the treatment of proliferative disorders” (GALAPAGOS NV, priority 2014, dated 2015):

These compounds were tested against T1, EphA2 (UniProt Ref: P29317) (Homo sapiens, UniProt P29317) (assay: EphA2 assay (Reaction Biology HotSpot radioactive kinase assay)). Settings: ATP 10 μM; read-out: EphA2 potency IC50.
T1 construct: purchased Reaction Biology
Format: biochemical
Experimental: Inhibition of EphA2 (UniProt Ref: P29317) by a test compound is determined by a commercially available Reaction Biology proprietary nanoliter radioactive HotSpot^SM assay (Reaction Biology, One great valley parkway, Suite 2, Malvern Pa., 19355, USA). The principle of the assay consists of the measurement of incorporated ^33P into poly[Glu:Tyr] (4:1) (0.2 mg/mL) when the substrate is phosphorylated by the enzyme using [^33P]-γ-ATP and ATP (10 μM).
To determine the IC50, a serial dilution of compound is tested starting from 10, or 3 μM (highest dilution) with a 1/3 dilution.

T1 sequence (P29317 24-976): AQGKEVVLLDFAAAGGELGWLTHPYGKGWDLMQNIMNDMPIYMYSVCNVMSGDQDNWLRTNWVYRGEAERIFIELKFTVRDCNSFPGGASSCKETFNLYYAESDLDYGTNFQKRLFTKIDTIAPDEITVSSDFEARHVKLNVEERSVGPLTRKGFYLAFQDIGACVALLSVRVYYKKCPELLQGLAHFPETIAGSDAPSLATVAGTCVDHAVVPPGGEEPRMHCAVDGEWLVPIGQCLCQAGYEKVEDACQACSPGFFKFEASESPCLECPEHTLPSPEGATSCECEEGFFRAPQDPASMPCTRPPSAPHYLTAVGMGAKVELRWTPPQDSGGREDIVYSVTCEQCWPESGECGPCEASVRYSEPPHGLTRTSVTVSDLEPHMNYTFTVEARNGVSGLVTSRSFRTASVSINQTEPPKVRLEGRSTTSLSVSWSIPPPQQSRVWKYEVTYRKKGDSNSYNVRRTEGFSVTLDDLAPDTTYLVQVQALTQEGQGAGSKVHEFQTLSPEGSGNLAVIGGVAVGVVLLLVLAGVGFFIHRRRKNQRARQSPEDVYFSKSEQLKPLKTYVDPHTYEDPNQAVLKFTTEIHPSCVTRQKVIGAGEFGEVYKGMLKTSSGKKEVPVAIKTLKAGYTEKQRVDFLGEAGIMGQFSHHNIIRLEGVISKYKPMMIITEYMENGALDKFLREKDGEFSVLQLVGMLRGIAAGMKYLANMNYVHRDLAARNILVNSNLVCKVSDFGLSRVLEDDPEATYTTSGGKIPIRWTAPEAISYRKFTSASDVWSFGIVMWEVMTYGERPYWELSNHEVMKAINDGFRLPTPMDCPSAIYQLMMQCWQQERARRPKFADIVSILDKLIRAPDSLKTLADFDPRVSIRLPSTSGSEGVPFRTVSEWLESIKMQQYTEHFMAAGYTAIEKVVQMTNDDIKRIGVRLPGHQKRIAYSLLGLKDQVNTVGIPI

| IC50 [nM] | SMILES |
| --- | --- |
| 0.01 to 25 | Cc1ccc(NC(=O)c2cccc(C(F)(F)F)c2)cc1-c1ccc2c(CO)n[nH]c2n1 [Compound 1, N-(3-(3-(hydroxymethyl)-1H-pyrazolo[3,4-b]pyridin-6-yl)-4-methylphenyl)-3-(trifluoromethyl)benzamide] |
| 0.01 to 25 | CCc1n[nH]c2nc(-c3cc(NC(=O)c4cc(C)cc(OC)c4)ccc3C)ccc12 [Compound 19, N-[3-(3-Ethyl-1H-pyrazolo[3,4-b]pyridin-6-yl)-4-methyl-phenyl]-3-methoxy-5-methyl-benzamide] |
| 25 to 50 | CCc1n[nH]c2nc(-c3cc(NC(=O)c4cc(OC)cc(OC)c4)ccc3Cl)ccc12 [Compound 22, N-[4-Chloro-3-(3-ethyl-1H-pyrazolo[3,4-b]pyridin-6-yl)-phenyl]-3,5-dimethoxy-benzamide] |
| 0.01 to 25 | CCc1n[nH]c2nc(-c3cc(NC(=O)c4cc(C)cc(OCCO)c4)ccc3C)ccc12 [Compound 23, N-[3-(3-Ethyl-1H-pyrazolo[3,4-b]pyridin-6-yl)-4-methyl-phenyl]-3-(2-hydroxy-ethoxy)-5-methyl-benzamide] |
| 0.01 to 25 | CCc1n[nH]c2nc(-c3cc(NC(=O)c4cc(C)cc(OCCN(C)C)c4)ccc3C)ccc12 [Compound 25, 3-(2-Dimethylamino-ethoxy)-N-[3-(3-ethyl-1H-pyrazolo[3,4-b]pyridin-6-yl)-4-methyl-phenyl]-5-methyl-benzamide] |
| 50 to 100 | CCc1n[nH]c2nc(-c3cc(NC(=O)c4cc(N(C)C)cc(C(F)(F)F)c4)ccc3C)ccc12 [Compound 26, 3-Dimethylamino-N-[3-(3-ethyl-1H-pyrazolo[3,4-b]pyridin-6-yl)-4-methyl-phenyl]-5-trifluoromethyl-benzamide] |
| 50 to 100 | CCc1ccc(NC(=O)c2cc(OC)cc(OC)c2)cc1-c1ccc2c(CC)n[nH]c2n1 [Compound 32, N-[4-Ethyl-3-(3-ethyl-1H-pyrazolo[3,4-b]pyridin-6-yl)-phenyl]-3,5-dimethoxy-benzamide] |
| 0.01 to 25 | CCc1n[nH]c2nc(-c3cc(NC(=O)c4cc(OC)cc(C(F)(F)F)c4)ccc3C)ccc12 [Compound 33, N-[3-(3-Ethyl-1H-pyrazolo[3,4-b]pyridin-6-yl)-4-methyl-phenyl]-3-methoxy-5-trifluoromethyl-benzamide] |
| 0.01 to 25 | CCc1n[nH]c2nc(-c3cc(NC(=O)c4cc(OC)cc(OCCN)c4)ccc3C)ccc12 [Compound 39, 3-(2-amino-ethoxy)-N-[3-(3-ethyl-1H-pyrazolo[3,4-b]pyrin-6-yl)-4-methylphenyl]-5-methoxybenzamide] |
| 0.01 to 25 | CCc1n[nH]c2nc(-c3cc(NC(=O)c4cc(OC)cc(OCCN5CCOCC5)c4)ccc3C)ccc12 [Compound 41, N-[3-(3-Ethyl-1H-pyrazolo[3,4-b]pyridin-6-yl)-4-methyl-phenyl]-3-methoxy-5-(2-morpholin-4-yl-ethoxy)-benzamide] |
| 0.01 to 25 | CCc1n[nH]c2nc(-c3cc(NC(=O)c4cc(OCCN5CCOCC5)cc(C5CC5)c4)cnc3C)ccc12 [Compound 43, 3-Cyclopropyl-N-[5-(3-ethyl-1H-pyrazolo[3,4-b]pyridin-6-yl)-6-methyl-pyridin-3-yl]-5-(2-morpholin-4-yl-ethoxy)-benzamide] |
| 50 to 100 | CCc1n[nH]c2nc(-c3cc(NC(=O)c4cc(OC)cc(OCCN)c4)cnc3C)ccc12 [Compound 44, 3-(2-Amino-ethoxy)-N-[5-(3-ethyl-1H-pyrazolo[3,4-b]pyridin-6-yl)-6-methyl-pyridin-3-yl]-5-methoxy-benzamide] |
| 25 to 50 | COc1cc(OC)cc(C(=O)Nc2ccc(C)c(-c3ccc4c([C@@H](C)O)n[nH]c4n3)c2)c1 [Compound 48, N-{3-[3-((R)-1-Hydroxy-ethyl)-1H-pyrazolo[3,4-b]pyridin-6-yl]-4-methyl-phenyl}-3,5-dimethoxy-benzamide] |
| 0.01 to 25 | CCc1n[nH]c2nc(-c3cc(NC(=O)c4cc(OC)cc(C5CC5)c4)ccc3C)ccc12 [Compound 51, 3-Cyclopropyl-N-[3-(3-ethyl-1H-pyrazolo[3,4-b]pyridin-6-yl)-4-methyl-phenyl]-5-methoxy-benzamide] |
| 0.01 to 25 | Cc1cc(C)cc(C(=O)Nc2cnc(C)c(-c3ccc4c(C)n[nH]c4n3)c2)c1 [Compound 52, 3,5-Dimethyl-N-[6-methyl-5-(3-methyl-1H-pyrazolo[3,4-b]pyridin-6-yl)-pyridin-3-yl]-benzamide] |
| 0.01 to 25 | Cc1ncc(NC(=O)c2cccc(C(F)(F)F)c2)cc1-c1ccc2c(C)n[nH]c2n1 [Compound 53, N-[6-Methyl-5-(3-methyl-1H-pyrazolo[3,4-b]pyridin-6-yl)-pyridin-3-yl]-3-trifluoromethyl-benzamide] |
| 0.01 to 25 | Cc1cc(C)cc(C(=O)Nc2ccc(C)c(-c3ccc4c(C(C)O)n[nH]c4n3)c2)c1 (stereo not drawn) [Compound 54, N-{3-[3-(1-Hydroxy-ethyl)-1H-pyrazolo[3,4-b]pyridin-6-yl]-4-methyl-phenyl}-3,5-dimethyl-benzamide] |

What follows are compounds tested against T2, Recombinant EphA7 (Homo sapiens, UniProt Q15375) (assay: EphA7 assay (33P incorporation into poly GT, filter plate)). Settings: EphA7 potency; 0.15 μM ATP; read-out: IC50.
T2 construct: purchased Carna 08-126
Format: biochemical
Experimental: The principle of the assay consists of the measurement of incorporated ^33P into the substrate poly GT when phosphorylated by the enzyme EphA7 using [^33P]-γ-ATP and ATP. Unincorporated ^33P is removed by loading the samples on a filter plate (using a harvester, Perkin Elmer) and 6 subsequent washing steps. ^33P incorporated in polyGT is measured on a Topcount after addition of microscint to the filter plates (Perkin Elmer).
Recombinant EphA7 (Carna Cat#08-126, 2 ng per well) was incubated with 0.1 mg/mL Poly(Glu,Tyr)sodium salt (4:1), MW 20 000-50 000 (Sigma catalog number P0275) in kinase reaction buffer (10 mM MOPS pH 7.2, 5 mM DTT, 0.01% Triton-X100, 5 mM MnCl2, 0.5 mM Na3VO4, 5 mM beta-glycerolphosphate), 0.15 μM non-radioactive ATP, 0.125 μCi/25 μl ^33P-gamma-ATP (Perkin Elmer, catalog number NEG602K) final concentrations with or without 5 μL containing test compound or vehicle (DMSO, 1% final concentration), in a total volume of 25 μL, in a polypropylene 96-well plate (Greiner, V-bottom). After 90 min at 30° C., reactions were stopped by adding of 25 μL/well of 150 mM phosphoric acid. All of the terminated kinase reaction was transferred to prewashed (75 mM phosphoric acid) 96 well filter plates (Perkin Elmer catalog number 6005177) using a cell harvester (Perkin Elmer). Plates were washed 6 times with 300 μL per well of a 75 mM phosphoric acid solution and the bottom of the plates was sealed. 40 μL/well of Microscint-20 was added, the top of the plates was sealed and readout was performed using the Topcount (Perkin Elmer). The ability of a test compound to inhibit the kinase activity was determined using counts per minutes (cpm) measured by the Topcount as:
Cpm (cpd): cpm determined for sample with test compound present
Cpm (control): cpm determined for sample with positive control inhibitor (10 μM staurosporine)
Cpm (vehicle): cpm determined in the presence of vehicle (1% DMSO)
Dose dilution series were prepared for the compounds enabling the testing of dose-response effects in the EphA7 assay and the calculation of the IC50 for each compound. Each compound was routinely tested at concentration of 20 μM followed by a 1/5 serial dilution, 10 points in a final concentration of 1% DMSO. When potency of compound series increased, more dilutions may be prepared and/or the top concentration may be lowered (e.g. 5 μM, 1 μM).

T2 sequence (Q15375 579-998 limits assumed): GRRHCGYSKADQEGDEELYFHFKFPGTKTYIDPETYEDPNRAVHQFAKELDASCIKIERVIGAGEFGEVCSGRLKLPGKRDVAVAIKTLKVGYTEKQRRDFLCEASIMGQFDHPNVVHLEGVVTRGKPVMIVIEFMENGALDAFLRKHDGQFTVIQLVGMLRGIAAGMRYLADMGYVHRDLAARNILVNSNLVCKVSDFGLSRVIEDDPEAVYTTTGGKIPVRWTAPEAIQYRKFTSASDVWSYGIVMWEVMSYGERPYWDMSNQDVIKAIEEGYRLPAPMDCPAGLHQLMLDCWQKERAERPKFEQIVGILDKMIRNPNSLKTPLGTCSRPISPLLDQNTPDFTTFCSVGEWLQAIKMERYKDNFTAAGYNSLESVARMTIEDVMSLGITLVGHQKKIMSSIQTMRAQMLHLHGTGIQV

| IC50 [nM] | SMILES |
| --- | --- |
| 0.01 to 250 | CCc1n[nH]c2nc(-c3cc(NC(=O)c4cc(OCCN5CCOCC5)cc(C5CC5)c4)cnc3C)ccc12 [Compound 43, 3-Cyclopropyl-N-[5-(3-ethyl-1H-pyrazolo[3,4-b]pyridin-6-yl)-6-methyl-pyridin-3-yl]-5-(2-morpholin-4-yl-ethoxy)-benzamide] |
